The subject of one assay is S. aureus SFL64. The assay can be described thus: MIC and MBC values (Table 2). Format: cell-based, Staphylococcus aureus. As to conditions: repeated determinations.
Assay [1] has as its system methicillin resistant Staphylococcus aureus (MRSA) clinical isolate. As to the kind of experiment: MIC by broth microdilution. Format: cell-based. Particulars: Staphylococcus aureus, MRSA, 18 h, clinical isolate of MRSA from an adult CF patient; broth culture, 18 h at 37° C.; read-out: minimum inhibitory concentration (MIC). Here is the method:
(§1) The methicillin resistant Staphylococcus aureus (MRSA) and Pseudomonas aeruginosa (PA) strains used in this study are clinical isolates obtained from an adult CF patient at the Cystic Fibrosis Clinic at the OU Children's Hospital (Oklahoma City, Okla.). Escherichia coli (E. coli) and Enterococcus faecalis (E. faecalis) were obtained from American Type Culture Collection (ATCC). The strains were grown overnight with shaking at 37° C. (220 RPM) in 15 mL of Luria-Bertani (LB) broth. The overnight culture was sub-cultured the next day before use for the MIC experiments. All sub-cultures consisted of 1 mL of the overnight culture, mixed with 10 mL of Mueller Hinton broth. The working stock of the EIPE-1 and DBI was prepared by dissolving 1 mg of each in 1 mL of DMSO.
(§2) The minimum inhibitory concentrations (MICs) were determined by the broth microdilution method, following the guidelines of the Clinical and Laboratory Standards Institute (CLSI). Two-fold serial dilutions of EIPE-1, DBI, and Arm (starting with 1 mg/mL) were prepared in a 100 μL volume in 96-well microtiter plates. The dilution series included DMSO as a negative control. The bacterial culture […] was normalized to an OD600 of 0.2 and was then added to each well. Plates were incubated with shaking at 220 RPM at 37° C., and the MIC was determined based on the lowest concentration at which no visible growth of the bacterial isolate was observed.
(§3) In order to determine the MIC of EIPE-1 on MRSA, a culture of MRSA was grown overnight in Mueller Hinton broth (MHB) at 37° C., sub-cultured by a 1/100 dilution into MHB and dispensed into a 96 well culture block (900 μL of diluted culture in each well). To each well either DMSO or a serial dilution of EIPE-1 was added, then the culture was grown for 18 h at 37° C. The next day each well was tested for either growth or inhibition of growth by measuring of the OD^600 of the resulting culture. […] For comparison, the MIC of EIPE-1 was also determined against E. faecalis (8 μg/mL, 9 μM), confirming activity against Gram-positive bacteria.
For orientation: In broth dilution the organism is exposed to a series of concentrations in liquid medium.

The test system of assay [2] is Enterococcus faecalis (E. faecalis). The assay can be described thus: MIC by broth microdilution. The class given is cell-based. The protocol: as §1, §2, §3
Assay [3] concerns Cryptococcus neoformans serotype A strain H99. As to the kind of experiment: Antifungal MIC assay. Format: cell-based. The protocol: Cryptococcus neoformans serotype A strain H99 as well as Candida ablicans strain SC5314, were readily available in the lab. The stock of cells is stored at −80° C. to preserve the fungi and prevent contamination. The cells were grown and maintained in yeast extract-peptone-dextrose (YPD) media (Difco). Cryptococcus or Candida cells were incubated in YPD broth for 18 hrs at 30° C., in a shaking incubator. After the incubation period, they were washed three times in sterile phosphate-buffered saline (PBS) to remove all remaining residue of YPD. The cells were then quantified by using trypan blue dye exclusion in a hemocytometer.
C. neoformans were suspended in RPMI with MOPS, 0.165M, at a concentration of 0.5×10^3 cells/mL. RPMI MOPS media was added to a 96-well plate in a volume of 100 μL to every well, with the exception of column 1. An additional 80 μL of RPMI MOPS was added to column 4 for a total of 180 μL/per well. Amphotericin B or EIPE-1 was added to columns […] with a volume of 20 μL at a concentration of 1 mg/mL. Contents were mixed, then serially diluted 100 μL down the plate until column 11. The last 100 μL was discarded, leaving column 12 blank. C. neoformans was added at a volume of 100 μL per well from column 4 to column 12, so the final volume of the wells was 200 μL. Plates were incubated at 35° C. in a humid incubator for 48 hrs.

Assay [4] has as its system Escherichia coli (E. coli). The assay can be described thus: Antimicrobial activity against E. coli. Format: cell-based. Here is the method: as §1
The minimum inhibitory concentrations (MICs) were determined by the broth microdilution method, following the guidelines of the Clinical and Laboratory Standards Institute (CLSI). Two-fold serial dilutions of EIPE-1, DBI, and Arm (starting with 1 mg/mL) were prepared in a 100 μL volume in 96-well microtiter plates. The dilution series included DMSO as a negative control. […] Plates were incubated with shaking at 220 RPM at 37° C., and the MIC was determined based on the lowest concentration at which no visible growth of the bacterial isolate was observed.

Assay [5] deals with Candida isolates from the airways of CF patients. As to the kind of experiment: MIC against Candida clinical isolates. The class given is cell-based. As to conditions: range over multiple Candida isolates from CF patients (FIG. 8). The protocol:
EIPE-1 was evaluated against multiple Candida isolates from the airways of CF patients.

From patent US11730717B1, “Melanin-inspired antimicrobial” (The Board of Regents for the Oklahoma Agricultural and …, priority 2020, dated 2023) come the findings set out here.

Molecules are shown by their SMILES. Where “and” joins values, the source holds several entries; their conditions need not be identical. Equal values may be shown once. Read-outs that look alike come from different tables or passages of the source.

For the molecule `COC(=O)c1cc2c(C#Cc3ccc(OCCC[N+](C)(C)C)cc3)c(OC)c(OC)c(C#Cc3ccc(OCCC[N+](C)(C)C)cc3)c2n1C` [EIPE-1, 3,3′-((((5,6-dimethoxy-2-(methoxycarbonyl)-1-methyl-1H-indole-4,7-diyl)bis(ethyne-2,1-diyl))bis(4,1-phenylene))bis(oxy))bis(N,N,N-trimethylpropan-1-aminium) iodide], the “MIC” value is 1.000 µg/mL in the assay on S. aureus SFL64 (S. aureus SFL64); 0.5 µg/mL in the assay with S. aureus SFL64 (Staphylococcus aureus, SFL64, S. aureus SFL64, read-out: MIC); 16 µg/mL and 17.1 µM in assay [1]; 8 µg/mL and 9 µM in assay [2]; 1.75 µg/mL in assay [3] (Cryptococcus neoformans, read-out: MIC for C. neoformans); 4 to 11 µg/mL in assay [5]. Moreover, the “MIC for C. neoformans” value in assay [3] is 3.1 µg/mL. In addition, in assay [3] (35° C., 48 hrs, RPMI with MOPS), the “Minimum inhibitory concentration (MIC) for the isolate of C. neoformans” value came to 1.749 ± 0.1080 µg·mL. For the same molecule, in assay [3] (across seven MIC assays), the MIC, C. neoformans came out at 1.67 µg/mL. Besides, the “activity against E. coli” value in assay [4] is recorded as “did not display any activity”.
